Eight molecules from patent US10293053B2, “Silanol based therapeutic payloads” (BlinkBio, Inc., priority 2016, dated 2019) can be followed below.

The test system of experiment [1] is KB cells. Briefly: CellTiter-Glo cell viability, 72 hour incubation protocol. The conditions noted are these: Homo sapiens. Format: cell-based. On the procedure:
72 hour incubation protocol: The CellTiter-Glo (CTG) assay (Promega) was used to measure cell viability in various different cell lines included KB cells obtained from American Type Culture Collection (ATCC). […] For this assay, 5,000 cells per well were plated in a 96-well tissue culture treated plate in RPMI 1640 medium (ThermoFisher Scientific) containing 5% FBS. Cells were allowed to settle at 37° C. in a humidified CO2 incubator for 24 hours. Cells were dosed with compound or vehicle control in duplicate for 72 hours at 37° C. in a humidified CO2 incubator. After the 72 hour dosing period, the CTG assay was performed according to the manufacturer's specifications. Luminescence was read using a Victor X5 (PerkinElmer) plate reader. Data was analyzed using Prism software and was normalized to the vehicle control.

Experiment [2] concerns KB cells. Briefly: Cell titer-glo cell viability, washout protocol. Format: cell-based. As to conditions: percent cell kill at 48 h. How it is done:
Washout protocol: KB cells in culture were seeded in white clear bottom 96-well tissue culture plate at a density of 5,000 cells per well in a folate free RPMI media with 10% FBS a day prior to compound addition. Cells were counted visually with a hemocytometer and diluted accordingly to obtain the desired density. Cells were allowed to incubate for 24 hours in a humidified CO2 atmosphere in an incubator at 37° C. The spent media was aspirated and replenished with 100 μL of fresh media containing a 3-fold serial dilution of compound with concentrations ranging from 0.3 to 2000 nM and with a final DMSO concentration of 0.1%. Blank wells without compound were also treated with media containing 0.1% DMSO. Cells were incubated for 2 h and washed 4 times with fresh media. […] […] 100 μL of constituted Cell titer-glo reagent was added to each well and luminescence was recorded with a VICTOR plate reader according to manufacturers' protocol.

[3] abbreviates: 72 h incubation protocol, silanol based payloads, read-out: EC50.

Read-outs that look alike come from different tables or passages of the source. Where a SMILES comes first, the peptide text is derived from it. [ ]: non-standard residue; d: D form. The star is where a group is joined. Dolaproine = CO[C@@H]([C@@H]1CCCN1)[C@@H](C)C(=O)O; Dil = CC[C@H](C)[C@H](NC)[C@@H](CC(=O)O)OC; NMe2Val = CC(C)[C@@H](C(=O)*)N(C)C; NMeV = CN[C@H](C(=O)O)C(C)C; X3 = C[Si](C)(O)CCCC(=O)*; X2 = C[Si](C)(O)CCCN*

Broadly, the EC50 is the concentration at which the effect is half-maximal. On to `CC[C@]1(O)C[C@H]2CN(CCc3c([nH]c4ccccc34)[C@@](C(=O)OC)(c3cc4c(cc3OC)N(C)[C@H]3[C@@](O)(C(=O)NCCC[Si](C)(C)O)[C@H](O)[C@]5(CC)C=CCN6CC[C@]43[C@@H]65)C2)C1` (stereo in doubt) [Example 1, Methyl (3R,5S,7R,9S)-5-ethyl-9-((3aR,3a1R,4R,5S,5aR,10bR)-3a-ethyl-4,5-dihydroxy-5-((3-(hydroxydimethylsilyl)propyl)carbamoyl)-8-methoxy-6-methyl-3a,3a1,4,5,5a,6,11,12-octahydro-1H-indolizino[8,1-cd]carbazol-9-yl)-5-hydroxy-1,4,5,6,7,8,9,10-octahydro-2H-3,7-methano[1]azacycloundecino[5,4-b]indole-9-carboxylate], for which the EC50 in experiment [1] (setting [3]) was ~6 nM.

Consider `CCCC(=O)OCN(C(=O)[C@@H](NC(=O)[C@H]1CCCCN1C)[C@@H](C)CC)[C@H](C[C@@H](OC(C)=O)c1nc(C(=O)N[C@@H](Cc2ccc(O)cc2)C[C@H](C)C(=O)NCCC[Si](C)(C)O)cs1)C(C)C` (stereo in doubt) [Example 13], for which, in experiment [1] (72 h), the EC50 was < 0.1 nM.

Turning to `CC[C@H](C)[C@@H]([C@@H](CC(=O)N1CCC[C@H]1[C@H](OC)[C@@H](C)C(=O)N[C@@H](Cc1ccccc1)C(=O)NCCC[Si](C)(C)O)OC)N(C)C(=O)[C@@H](NC(=O)[C@H](C(C)C)N(C)C)C(C)C` [Example 5, (S)—N-((3R,4S,5S)-1-((S)-2-((3R,4R,7S)-7-benzyl-13-hydroxy-4,13-dimethyl-5,8-dioxo-2-oxa-6,9-diaza-13-silatetradecan-3-yl)pyrrolidin-1-yl)-3-methoxy-5-methyl-1-oxoheptan-4-yl)-2-((S)-2-(dimethylamino)-3-methylbutanamido)-N,3-dimethylbutanamide] (NMe2Val-V[Dil][Dolaproine]F-X2), the EC50 in experiment [1] (72 h) was ~0.5 nM.

Regarding `CC[C@H](C)[C@@H]([C@@H](CC(=O)N1CCC[C@H]1[C@H](OC)[C@@H](C)C(=O)N[C@@H](Cc1ccccc1)C(=O)O)OC)N(C)C(=O)[C@@H](NC(=O)[C@H](C(C)C)N(C)C(=O)CCC[Si](C)(C)O)C(C)C` [Example 6, ((2R,3R)-3-((S)-1-((3R,4S,5S)-4-((S)-2-((S)-2-(4-(hydroxydimethylsilyl)-N-methylbutanamido)-3-methylbutanamido)-N,3-dimethylbutanamido)-3-methoxy-5-methylheptanoyl)pyrrolidin-2-yl)-3-methoxy-2-methylpropanoyl)-L-phenylalanine] (X3-[NMeV]V[Dil][Dolaproine]F-OH), in experiment [1] (72 h), the EC50 was ~500 nM.

As for `CC[C@@]1(O)C(=O)OCc2c1cc1n(c2=O)Cc2c-1nc1ccccc1c2CC[Si](C)(C)O` [Example 7, (S)-4-Ethyl-4-hydroxy-11-(2-(hydroxydimethylsilyl)ethyl)-1,12-dihydro-14H-pyrano[3′,4′:6,7]indolizino[1,2-b]quinoline-3,14(4H)-dione], the EC50 in experiment [1] (setting [3]) was ~56 nM.

As for `CC[C@]1(O)C[C@@H]2CN(CCc3c([nH]c4ccccc34)[C@@](C(=O)OC)(c3cc4c(cc3OC)N(C)[C@H]3[C@@](O)(C(=O)NCCC[Si](C)(C)O[Si](C)(C)CSc5ncc(Cn6cc(COCCOCCOCCOCCOCCOCCNC(=O)CC[C@H](NC(=O)c7ccc(NCc8cnc9nc(N)[nH]c(=O)c9n8)cc7)C(=O)O)nn6)cn5)[C@H](O)[C@]5(CC)C=CCN6CC[C@]43[C@@H]65)C2)C1` [Example 24], the “% Kill (48 h)” value in experiment [2] is on record as 84%.

Turning to `CC[C@]1(O)CC2CN(CCc3c([nH]c4ccccc34)[C@@](C(=O)OC)(c3cc4c(cc3OC)N(C)[C@H]3[C@@](O)(C(=O)NCCC[Si](C)(C)O[Si](C)(C)CSc5ncc(COCCOCCOCCn6cc(COCC(COCc7cn(CCOCCOCCOCc8cnc(SC[Si](C)(C)O[Si](C)(C)CCCNC(=O)[C@@]9(O)[C@H](O)[C@]%10(CC)C=CCN%11CC[C@@]%12(c%13cc([C@@]%14(C(=O)OC)CC%15CN(CCc%16c%14[nH]c%14ccccc%16%14)C[C@](O)(CC)C%15)c(OC)cc%13N(C)[C@@H]9%12)[C@@H]%11%10)nc8)nn7)(COCc7cn(CCOCCOCCOCc8cnc(SC[Si](C)(C)O[Si](C)(C)CCCNC(=O)[C@@]9(O)[C@H](O)[C@]%10(CC)C=CCN%11CC[C@@]%12(c%13cc([C@@]%14(C(=O)OC)CC%15CN(CCc%16c%14[nH]c%14ccccc%16%14)C[C@](O)(CC)C%15)c(OC)cc%13N(C)[C@@H]9%12)[C@@H]%11%10)nc8)nn7)NC(=O)CCOCCOCCOCCOCCOCCOCCNC(=O)CC[C@H](NC(=O)c7ccc(NCc8cnc9nc(N)[nH]c(=O)c9n8)cc7)C(=O)O)nn6)cn5)[C@H](O)[C@]5(CC)C=CCN6CC[C@]43[C@@H]65)C2)C1` (some centres unmarked) [Example 27], the “% Kill (48 h)” value in experiment [2] came to 80%.

Regarding `CC[C@]1(O)C[C@@H]2CN(CCc3c([nH]c4ccccc34)[C@@](C(=O)OC)(c3cc4c(cc3OC)N(C)[C@H]3[C@@](O)(C(=O)NCCC[Si](C)(C)O[Si](C)(C)CSc5ncc(Cn6cc(C[C@H](NC(=O)[C@H](CC(=O)O)NC(=O)[C@H](CC(=O)O)NC(=O)[C@H](CCCNC(=N)N)NC(=O)[C@H](CC(=O)O)NC(=O)CC[C@H](NC(=O)c7ccc(NCc8cnc9nc(N)[nH]c(=O)c9n8)cc7)C(=O)O)C(=O)O)nn6)cn5)[C@H](O)[C@]5(CC)C=CCN6CC[C@]43[C@@H]65)C2)C1` [Example 28], the “% Kill (48 h)” value in experiment [2] was found to be 86%.
